What all share (experiment): NCI tumour cell line growth inhibition, 48 h
Experiment [1] relates to BT-549 breast.
The subject of experiment [2] is EKVX NSCLC.
Experiment [3] relates to HT29 colon.
Experiment [4] concerns M14 melanoma.
The subject of experiment [5] is OVCAR-3 ovarian.
For experiment [6], the system named is SF-539 CNS.
For experiment [7], the system named is SK-MEL-28 melanoma.
Experiment [8] has as its system SK-OV-3 ovarian.
In experiment [9] the test system is SN12C renal.
Experiment [10] relates to T-47D breast.

Molecules are shown by their SMILES.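 Each compound was tested at five concentrations against cells in 96-well plates for 48 hours. TGI: total growth inhibition.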 Bounds are passed on as bounds.

Turning to `COc1ccc(N2CCN(c3ccc4c(c3)NCC(=O)N4)CC2)cc1`, the TGI in experiment [1] is over 100 µM; in [2] it was over 100 µM; in experiment [3], over 100 µM; in experiment [4], over 100 µM; in experiment [5], over 100 µM; in experiment [6], 54.1 µM. Also, the TGI in experiment [7] is over 100 µM; in [8], over 100 µM; in experiment [9] it was over 100 µM; in experiment [10], 33.4 µM.

For `COC(=O)C1=C(OC(=O)/C(=C/c2ccc(Cl)cc2)c2ccccc2)C(C(=O)OC)[C@@]2(O)[C@@H](C(=O)OC)[C@H](C)C[C@@H]1[C@@H]2C(=O)OC` (stereo not given in full), the TGI in experiment [1], in experiment [2], in experiment [3], in [4], in [5] and in [6] was over 100 µM throughout. Besides, the TGI in [7], in experiment [8], in [9] and in [10] was over 100 µM in each case.

For the molecule `Cc1ccc([N+](=O)[O-])cc1S(=O)(=O)Nc1ccc(C2=NN(c3ccc([N+](=O)[O-])cc3[N+](=O)[O-])C(c3ccccc3O)C2)cc1` (stereo not given), the TGI in experiment [1] is over 100 µM; in experiment [2], 90.6 µM; in experiment [3], over 100 µM; in experiment [4] it was over 100 µM; in experiment [5], 61.3 µM; in [6] it was over 100 µM. The TGI in experiment [7] is over 100 µM; in experiment [8], over 100 µM; in [9] it was 54 µM; in experiment [10], over 100 µM.

As to `Clc1ccc(OCC2NC3C=CC32)cn1` (stereo not given), the TGI is over 100 µM in experiment [1]; 93.7 µM in experiment [2]; over 100 µM in [3]; over 100 µM in [4]; over 100 µM in experiment [5]; over 100 µM in experiment [6]. Moreover, the TGI in experiment [7], in [8], in experiment [9] and in experiment [10] was over 100 µM each time.

Regarding `COc1cc2c3c(cc(Cl)nc3c1OC)C(O)(CC(C)=O)C(=O)N2` (stereo not given), the TGI was 30.8 µM in experiment [1]; 30.9 µM in [2]; over 61.9 µM in [3]; 36.5 µM in experiment [4]; over 100 µM in [5]; over 100 µM in experiment [6]. Further, the TGI in experiment [7] is over 60.7 µM; in [8], over 72.8 µM; in experiment [9], 36.1 µM; in experiment [10] it was over 100 µM.

Turning to `N#CC1N(C(=O)c2ccc(F)cc2)c2ccccc2N1C(=O)c1ccc(F)cc1`, the TGI in experiment [1] was 77.3 µM; in experiment [2], over 100 µM; in experiment [3] it was over 100 µM; in experiment [4], over 100 µM; in experiment [5], over 100 µM; in experiment [6], over 100 µM. For the same molecule, the TGI in experiment [7], in experiment [8], in [9] and in experiment [10] was over 100 µM throughout.

`O=C(c1ccc(Cl)cc1)N(Cc1cccnc1)C(=S)N(Cc1cccnc1)C(=O)c1ccc(Cl)cc1`: the TGI was 51 µM in experiment [1]; over 100 µM in experiment [2]; 76.9 µM in [3]; 59.7 µM in experiment [4]; over 100 µM in [5]; 50.4 µM in experiment [6]. The TGI in experiment [7] was over 100 µM; in experiment [8] it was over 100 µM; in [9], 48.1 µM; in experiment [10], over 100 µM.

`CC(/C=N/NC1=NCCCCN1)=N\NC1=NCCCCN1`: the TGI in [1] was over 100 µM; in experiment [2], over 100 µM; in experiment [3] it was over 100 µM; in [4], 38.7 µM; in [5] it was over 100 µM; in experiment [6], over 100 µM. In addition, the TGI in experiment [7], in experiment [8], in [9] and in [10] was over 100 µM throughout.

In the case of `CC(C)OC(=O)c1ccc(CCC2=CC(=O)C(Br)=CC2=O)cc1`, the TGI is 16.8 µM in experiment [1]; 31.1 µM in experiment [2]; 31.8 µM in experiment [3]; 31.2 µM in experiment [4]; 29 µM in [5]; 35.5 µM in [6]. Also, the TGI is 32.7 µM in experiment [7], over 100 µM in [8], 31.1 µM in experiment [9] and 45 µM in [10].

For the molecule `O=C1c2ccccc2C(=O)N1C(=S)c1ccccc1`, the TGI in experiment [1], in [2], in experiment [3], in experiment [4], in [5] and in experiment [6] was over 100 µM each time. The TGI in experiment [7], in experiment [8], in experiment [9] and in experiment [10] was over 100 µM each time.

Take `CCN(CC)C(=S)SNCCc1ccc(S(N)(=O)=O)cc1`: the TGI stood at 30 µM in [1]; 40 µM in experiment [2]; 27.1 µM in experiment [3]; 23.1 µM in [4]; 43.9 µM in experiment [5]; 28.8 µM in experiment [6]. For the same molecule, the TGI in experiment [7] was 25.8 µM; in experiment [8] it was over 73.1 µM; in [9], 27.2 µM; in experiment [10], 45.1 µM.

For `N=C1N=C(N)c2cc3c(cc21)SCCSCCCSCCS3`, the TGI in experiment [1] is 31.4 µM; in experiment [2], over 58.5 µM; in experiment [3], over 48.6 µM; in [4], 35.7 µM; in experiment [5], 28.4 µM; in experiment [6], over 54.6 µM. Further, the TGI in experiment [7] was 31.4 µM; in experiment [8], 41.1 µM; in experiment [9], 33.2 µM; in [10], 69.1 µM.

`CC1(C)Oc2ccc(Cl)cc2C12CC2`: the TGI in [1] is 68.5 µM; in experiment [2], 37.9 µM; in experiment [3], 34.7 µM; in experiment [4], 35.5 µM; in experiment [5] it was 26.7 µM; in experiment [6] it was over 100 µM. Further, the TGI in [7] was determined as 41.7 µM; in experiment [8], 44.7 µM; in experiment [9] it was 33.6 µM; in [10] it was 73.8 µM.

Source of the values: PubChem BioAssay (NCI).
